From article PMC6332188, “Synthesis, Antiviral Bioactivity of Novel 4-Thioquinazoline Derivatives Containing Chalcone Moiety” (Molecules, 2015)

molecular target: T1, TMV CP (tobacco mosaic virus coat protein) (Tobacco mosaic virus (vulgare), UniProt P69687); test: microscale thermophoresis; format: binding
T1 construct: labelled with Monolith NT Protein Labeling Kit Red
Excerpt: microscale thermophoresis on TMV CP (tobacco mosaic virus coat protein)

T1 sequence (P69687 2-159 limits assumed): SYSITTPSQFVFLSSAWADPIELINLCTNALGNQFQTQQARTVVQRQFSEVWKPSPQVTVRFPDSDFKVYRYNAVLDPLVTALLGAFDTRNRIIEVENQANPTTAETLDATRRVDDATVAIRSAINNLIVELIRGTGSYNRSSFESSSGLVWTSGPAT

| SMILES | Kd |
| --- | --- |
| NC(=O)c1ncn([C@@H]2O[C@H](CO)[C@@H](O)[C@H]2O)n1 [Ribavirin] | 511 ± 33.1 µM |
| COc1ccc(/C=C/C(=O)c2ccc(OCCSc3ncnc4ccccc34)cc2)cc1OC [M6, (E)-3-(3,4-Dimethoxyphenyl)-1-(4-(2-(quinazolin-4-ylthio)ethoxy)phenyl)prop-2-en-1-one] | 31.1 ± 1.83 µM |
| O=C(/C=C/c1ccc(Cl)cc1)c1ccc(OCCSc2ncnc3ccccc23)cc1 [M15] | 346 ± 23.9 µM |
